The NIST ThermoML archive (doi:10.1021/je100610v)

Assay: molar heat capacity at constant pressure; xn = mol fraction of the nth substance listed
Conditions: 101 kPa, Liquid

ClCCCCCCCl [1,6-dichlorohexane] + CCCCCCC
molar heat capacity at constant pressure [J/K/mol]
Conditions | x1 = 0.1033 | x1 = 0.2005 | x1 = 0.3004 | x1 = 0.397 | x1 = 0.5025 | x1 = 0.5978 | x1 = 0.7012 | x1 = 0.7975 | x1 = 0.8993 | x1 = 1
293.15 K | 224.18 | 225.58 | 226.93 | 228.73 | 230.53 | 232.22 | 233.79 | 235.58 | 237.46 | 239.21
294.15 K | 224.47 | 225.71 | 227.22 | 229.08 | 230.89 | 232.55 | 234 | 235.86 | 237.73 | 239.5
295.15 K | 224.85 | 226.27 | 227.61 | 229.51 | 231.34 | 232.94 | 234.33 | 236.23 | 238.1 | 239.69
296.15 K | 225.28 | 226.73 | 227.98 | 229.89 | 231.84 | 233.25 | 234.73 | 236.51 | 238.39 | 240.02
297.15 K | 225.7 | 227.04 | 228.31 | 230.27 | 231.98 | 233.48 | 235.05 | 236.81 | 238.57 | 240.35
298.15 K | 226.02 | 227.35 | 228.65 | 230.41 | 232.13 | 233.77 | 235.36 | 237.1 | 238.92 | 240.64
299.15 K | 226.42 | 227.84 | 228.96 | 230.75 | 232.24 | 234 | 235.65 | 237.33 | 239.06 | 240.85
300.15 K | 226.82 | 228.08 | 229.21 | 231.06 | 232.49 | 234.22 | 236.05 | 237.68 | 239.39 | 241.15
301.15 K | 227.16 | 228.49 | 229.61 | 231.57 | 232.94 | 234.6 | 236.34 | 238.04 | 239.79 | 241.46
302.15 K | 227.48 | 228.83 | 230 | 231.8 | 233.35 | 234.96 | 236.63 | 238.29 | 240.08 | 241.8
303.15 K | 227.86 | 229.13 | 230.36 | 232.08 | 233.73 | – | – | – | – | –
